Target: T1, CpGAPDH (Cryptosporidium parvum glyceraldehyde 3-phosphate dehydrogenase) (Cryptosporidium parvum, UniProt Q7YYQ9)
T1 construct: gene cgd6_3790; recombinant, N-terminal hexa-histidine tag kept, expressed in E. coli; homotetramer
Assay: X-ray crystal structure, […] Å, co-crystallized
Assay type: binding
Conditions: holoenzyme; 2 mM NAD; pH 7.5; NAD in all four subunits

T1 sequence (Q7YYQ9 1-339): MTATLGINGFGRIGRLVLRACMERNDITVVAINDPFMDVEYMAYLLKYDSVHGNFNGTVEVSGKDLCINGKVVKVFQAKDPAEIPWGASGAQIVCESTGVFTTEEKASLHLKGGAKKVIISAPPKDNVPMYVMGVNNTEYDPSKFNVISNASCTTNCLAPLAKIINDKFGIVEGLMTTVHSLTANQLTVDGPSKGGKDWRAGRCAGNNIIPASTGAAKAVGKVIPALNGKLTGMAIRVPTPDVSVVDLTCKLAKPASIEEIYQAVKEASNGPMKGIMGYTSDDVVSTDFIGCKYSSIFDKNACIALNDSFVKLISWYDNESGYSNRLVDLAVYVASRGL

NC(=O)c1ccc[n+]([C@@H]2O[C@H](COP(=O)(O)OP(=O)(O)OC[C@H]3O[C@@H](n4cnc5c(N)ncnc54)[C@H](O)[C@@H]3O)[C@@H](O)[C@H]2O)c1 [NAD]
X-ray crystal structure, 2.0 Å, co-crystallized: The holoenzyme form of CpGAPDH contains one NAD molecule in each subunit

Reference: publication PMC2662861, “An unexpected phosphate binding site in Glyceraldehyde 3-Phosphate Dehydrogenase: Crystal structures of apo, holo and ternary complex of Cryptosporidium parvum enzyme” (BMC Structural Biology, 2009)
